Earlier results in patent publication US6989159B2 (JDS Pharmaceuticals, LLC, priority 2000, dated 2006).

O=C([O-])[O-].[Li+].[Li+] [Lithium carbonate]
eliminated through urine (in vivo): More than 95%
reabsorbed in the proximal convoluted tubule (in vivo): 80%
time to complete absorption in the gastrointestinal tract (in vivo): about 8 hours
concentration in the liquor compared with the plasmatic one (steady state): below 50%
plasma half-life at the steady state (steady state): 20 to 24 h
